From patent US10159678B2, “Methods to decrease susceptibility to asthmatic bronchoconstriction” (Cornell University, priority 2012, dated 2018)

Columns and labels:
lung inflammation = test: Assessment of inflammation (BAL cells, lung histology, cytokine mRNA) after myriocin; assay type: in vivo, mice
Experimental: BAL was collected by intratracheal instillations of PBS (2×0.5 ml). Cell differentials were determined by Giemsa stain on cytospin preparations. Cell viability was determined by trypan blue exclusion. Expression of TNF-α, IL-6 and IL-1β in the lung was quantified by TaqMan RealTime RT-PCR. RNA was extracted using TRIzol (Invitrogen). […] RNA levels were quantified using the ΔΔCt method and normalized to expression of murine ribosomal 18s (4310893E, Applied Biosystems). For lung histology, lungs were inflated with 4% paraformaldehyde at 25 cm H2O and 5 μm paraffin sections were stained with hematoxylin and eosin (H&E).

isolated bronchial rings = test: MgSO4-induced relaxation of methacholine-stimulated bronchial rings from myriocin-treated mice; details: rings from mice given intranasal myriocin (20 μg), methacholine then MgSO4 (15 mM); FIG. 5C
Experimental: The effect of Mg^2+ supplementation on methacholine-induced contraction of bronchial rings was analyzed by adding MgSO4 (15 mM) to the myograph bath solution following stimulation with methacholine (10 μM).

TRPM7 = test: Lung magnesium homeostasis (TRPM6/TRPM7 mRNA, total lung magnesium) after myriocin; assay type: in vivo, mice
Excerpt: It is proportional to the magnesium concentration.

SPT = biological target: T1, SPT (Mus musculus, UniProt O35704+P97363); test: Incorporation of 3H-serine / 3H-sphingosine in lung homogenates after intranasal myriocin; assay type: in vivo, mice
T1 construct: from tissue
T1 sequence (P97363 1-560): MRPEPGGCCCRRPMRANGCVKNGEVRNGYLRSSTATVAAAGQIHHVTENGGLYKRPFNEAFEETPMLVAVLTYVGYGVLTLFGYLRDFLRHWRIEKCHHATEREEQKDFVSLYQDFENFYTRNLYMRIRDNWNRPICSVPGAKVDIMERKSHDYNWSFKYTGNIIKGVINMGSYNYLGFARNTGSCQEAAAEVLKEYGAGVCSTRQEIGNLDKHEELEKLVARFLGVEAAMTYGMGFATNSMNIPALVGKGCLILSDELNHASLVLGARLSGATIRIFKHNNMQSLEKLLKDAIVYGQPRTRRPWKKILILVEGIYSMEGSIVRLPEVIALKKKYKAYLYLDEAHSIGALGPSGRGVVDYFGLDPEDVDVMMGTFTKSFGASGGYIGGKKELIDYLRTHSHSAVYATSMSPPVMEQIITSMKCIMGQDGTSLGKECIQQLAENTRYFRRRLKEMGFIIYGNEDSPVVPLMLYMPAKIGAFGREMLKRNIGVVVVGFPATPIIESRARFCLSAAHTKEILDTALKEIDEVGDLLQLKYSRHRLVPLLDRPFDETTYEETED
T1 sequence (O35704 1-473): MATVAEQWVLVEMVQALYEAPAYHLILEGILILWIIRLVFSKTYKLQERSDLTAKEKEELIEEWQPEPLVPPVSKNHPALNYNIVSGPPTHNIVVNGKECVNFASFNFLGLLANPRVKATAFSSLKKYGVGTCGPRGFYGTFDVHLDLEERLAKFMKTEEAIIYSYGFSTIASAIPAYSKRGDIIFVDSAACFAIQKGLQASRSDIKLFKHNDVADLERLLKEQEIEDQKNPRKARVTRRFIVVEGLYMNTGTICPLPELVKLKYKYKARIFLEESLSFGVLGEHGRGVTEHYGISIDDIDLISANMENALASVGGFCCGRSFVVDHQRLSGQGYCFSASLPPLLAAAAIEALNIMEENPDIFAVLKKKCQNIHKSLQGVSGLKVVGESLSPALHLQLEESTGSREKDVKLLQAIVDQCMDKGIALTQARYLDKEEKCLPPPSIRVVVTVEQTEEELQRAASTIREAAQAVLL
T1 sequence (Q8R207 1-71 partner): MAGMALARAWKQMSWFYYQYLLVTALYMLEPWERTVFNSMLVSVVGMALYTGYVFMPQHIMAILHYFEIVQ
Experimental: Lungs were harvested following perfusion with phosphate-buffered saline (PBS, Invitrogen, Carlsbad, Calif.) containing 0.6 mM ethylenediamine tetra acetic acid dipotassium salt dehydrate (EDTA, Invitrogen) via the right ventricle to remove blood cells from the pulmonary circulation. The lungs were then homogenized in normal PBS. De-novo sphingolipid synthesis was assessed by evaluating incorporation of ^3H-serine (24.1 Ci/mmol, Perkin Elmer (Boston, Mass.) into ceramide and sphingosine. Sphingolipid synthesis through the recycling pathway was assessed by evaluating incorporation of ^3H-sphingosine (18.2 Ci/mmol, Perkin Elmer (Boston, Mass.) into ceramide and sphingomyelin. In both assays, equal amounts of fresh lung homogenates were incubated for 30 min at 37° C. with 2 μl of the radioactive tracer, followed by lyophilization to determine dry weight, lipid extraction with chloroform/methanol/water (1:1:0.9). The organic phase was evaporated, dissolved in 50 μl chloroform/methanol (1:1) spotted on […] chromatography plates (TLC) (Merck Silica gel 60, Darmstadt, Germany) and chromatographed for 25 min with chloroform-methanol-ammonium hydroxide (65:25:4 v/v). […] The TLC plate was cut at the corresponding lipid spot, mixed with scintillation fluid (Ultima Gold, Packard Instrument Company, CT) and analyzed in a scintillation counter (Perkin Elmer Wallac, Gaithersburg, Md.). […]

Muc5ac = test: Mucus production (PAS stain, Muc5ac mRNA) after myriocin; assay type: in vivo; details: myriocin-treated mice
Excerpt: Lung sections were stained with periodic acid-Schiff stain (PAS) and analyzed by light microscopy. Expression of MUC5ac (Mm01276735) was quantified by TaqMan RealTime RT-PCR as described above.

SMILES: CCCCCCC(=O)CCCCCC/C=C/C[C@@H](O)[C@H](O)[C@@](N)(CO)C(=O)O [myriocin]
- expression of IL-6 in the lungs (lung inflammation; myriocin (20 μg) vs controls, FIG. 4H): No increases
- expression of IL-1β in the lungs (lung inflammation; myriocin (20 μg) vs controls, FIG. 4I): No increases
- TNF-α expression in the lungs (lung inflammation; myriocin (20 μg) vs controls, FIG. 4J): less
- number of neutrophils in the BAL (lung inflammation; myriocin-treated (20 μg) animals, FIG. 4B): small increase
- inflammatory changes in lung sections (H&E) (lung inflammation; myriocin-treated (20 μg) mice): No inflammatory changes
- magnesium-induced relaxation of bronchial rings (isolated bronchial rings): impaired
- expression of TRPM6 (TRPM7; data not shown): not altered
- expression of TRPM7 in the lungs (TRPM7; mice that had received myriocin, FIG. 5A): increased
- lung magnesium levels (TRPM7; myriocin-treated (20 μg) mice, FIG. 5B): reduced
- SPT-dependent synthesis of sphinganine from 3H-serine (SPT; 3 hours following intranasal administration of myriocin): significantly decreased
- Non-SPT-dependent syntheses of ceramides or sphingomyelins from 3H-sphingosine (SPT; after myriocin administration, data not shown): not affected
- mucus-producing cells on PAS-stained lung sections (Muc5ac): No differences
- Expression of Muc5ac in the lungs (Muc5ac; FIG. 4K): unchanged
